Experimental data reported in patent publication US8143226B2, “Tyrosine kinase receptor antagonists and methods of treatment for breast cancer” (The Regents of the University of California, priority 2005, dated 2012).

Tested on: MCF-7 cells
Assay: Proliferation of MCF-7 cells in 10% fetal calf serum (CyQUANT)
Type: cell-based, human
Conditions: MCF-7, 10% fetal calf serum
Description: MCF-7 or MCNeuA cells were plated in 96 well plates (5×10^3 cells/well) in DMEM supplemented with 10% FCS. One plate was prepared for each harvest day. […] Microplate cultures were harvested on days 0, 1, 2, and 3 by inverting the microplate onto paper towels with gentle blotting to remove growth medium without disrupting adherent cells. Each plate was kept at −80° C. until the end of the experiment (day 3) when all of the plates were thawed and assayed together. After thawing, 200 μl of CyQUANT GR solution was added to each well and the plates were incubated in the dark for two to five minutes. Fluorescence was measured with a SpectraMax Gemini XS fluorescence microplate reader (Molecular Devices, Sunnyvale, Calif.) with 480-nm excitation and 520-nm emission. Proliferation index was calculated as the percent of nucleotide content versus control cells at day 0.

Q: With `CC(Cc1ccc(O)c(O)c1)C(C)Cc1ccc(O)c(O)c1` (centres unmarked) [NDGA, nordihydroguaiaretic acid] as the compound, how does the cell number (60 μM, within 24 hours) read?
A: The cell number was “dramatically reduced”.

Q: And the “lowest concentration significantly reducing rate of proliferation” value (up to 3 days)?
A: The value was 15 µM.
